Measured values reported in EP4553080A1, “NUCLEOSIDE DERIVATIVES AS ANTIVIRAL AGENTS AGAINST CORONAVIRUSES” (Ustav Organicke Chemie a Biochemie AV CR, v.v.i., priority 2023, dated 2025).

Target: nsp14 methyltransferase from SARS-CoV-2 (Severe acute respiratory syndrome coronavirus 2, UniProt P0DTD1)
Assay: Nsp14 MTase activity inhibition in vitro (EchoMS assay)
Assay type: biochemical
Conditions: not given

Q: Which IC50 does the source give for `Cc1noc(Cc2ccccc2)c1CSC[C@H]1O[C@@H](n2ccc3c(N)ncnc32)[C@H](O)[C@@H]1O` [Compound 99c, (2R,3R,4S,5S)-2-(4-Amino-7H-pyrrolo[2,3-d]pyrimidin-7H-yl)-5-((((5-benzyl-3-methylisoxazol-4-yl)methyl)thio)methyl)tetrahydrofuran-3,4-diol] here?
A: 2000 to 5000 nM

Same assay, conditions: recombinant nsp14 protein expressed in E. coli; dose-response curve

Q: With `Cc1ccc(-c2onc(C)c2CSC[C@H]2O[C@@H](n3cc(-c4ccc(C#N)cc4)c4c(N)ncnc43)[C@H](O)[C@@H]2O)cc1C` [Compound 235b, 4-(4-Amino-7-((2R,3R,4S,5S)-5-((((5-(3,4-dimethylphenyl)-3-methylisoxazol-4-yl)methyl)thio)methyl)-3,4-dihydroxytetrahydrofuran-2-yl)-7H-pyrrolo[2,3-d]pyrimidin-5-yl)benzonitrile] as the compound, how does the IC50 read?
A: 30 to 100 nM

Q: How did the IC50 turn out when `Cc1cncc(-c2ccccc2)c1CSC[C@H]1O[C@@H](n2ccc3c(N)ncnc32)[C@H](O)[C@@H]1O` [Compound 57c, (2R,3R,4S,5S)-2-(4-Amino-7H-pyrrolo[2,3-d]pyrimidin-7-yl)-5-((((3-methyl-5-phenylpyridin-4-yl)methyl)thio)methyl)tetrahydrofuran-3,4-diol] was run?
A: 30 to 100 nM

Q: With `Cc1n[nH]c(-c2ccccc2)c1CSC[C@H]1O[C@@H](n2ccc3c(N)ncnc32)[C@H](O)[C@@H]1O` [Compound 51c, (2R,3R,4S,5S)-2-(4-Amino-7H-pyrrolo[2,3-d]pyrimidin-7-yl)-5-((((3-methyl-5-phenyl-1H-pyrazol-4-yl)methyl)thio)methyl)tetrahydrofuran-3,4-diol] as the compound, how does the IC50 read?
A: 100 to 500 nM

Q: `Cc1noc(-c2ccccc2)c1CSC[C@H]1O[C@@H](n2cc(-c3ccnn3C)c3c(N)ncnc32)[C@H](O)[C@@H]1O` [Compound 154] was tested. Which IC50 did it give?
A: 30 to 100 nM

Q: With `Cc1noc(-c2ccccc2)c1CSC[C@H]1O[C@@H](n2cc(C3C[C@@H]4CC[C@H]3C4)c3c(N)ncnc32)[C@H](O)[C@@H]1O` (stereo in doubt) [Compound 136b, (2R,3R,4S,5S)-2-(4-Amino-5-((1S,4R)-bicyclo[2.2.1]heptan-2-yl)-7H-pyrrolo[2,3-d]pyrimidin-7-yl)-5-((((3-methyl-5-phenylisoxazol-4-yl)methyl)thio)methyl)tetrahydrofuran-3,4-diol] as the compound, how does the IC50 read?
A: 100 to 500 nM

Q: Which IC50 does the source give for `Cc1noc(-c2ccccc2)c1CSC[C@H]1O[C@@H](n2cc(C#Cc3ccccn3)c3c(N)ncnc32)[C@H](O)[C@@H]1O` [Compound 171b, (2R,3R,4S,5S)-2-(4-Amino-5-(pyridin-2-ylethynyl)-7H-pyrrolo[2,3-d]pyrimidin-7-yl)-5-((((3-methyl-5-phenylisoxazol-4-yl)methyl)thio)methyl)tetrahydrofuran-3,4-diol] here?
A: 10 to 30 nM

Q: How did the IC50 turn out when `Cc1noc(C2CCCCC2)c1CSC[C@H]1O[C@@H](n2ccc3c(N)ncnc32)[C@H](O)[C@@H]1O` [Compound 98c, (2R,3R,4S,5S)-2-(4-Amino-7H-pyrrolo[2,3-d]pyrimidin-7-yl)-5-((((5-cyclohexyl-3-methylisoxazol-4-yl)methyl)thio)methyl)tetrahydrofuran-3,4-diol] was run?
A: 500 to 2000 nM

Q: `Cc1noc(-c2ccc([N+](=O)[O-])cc2)c1CSC[C@H]1O[C@@H](n2ccc3c(N)ncnc32)[C@H](O)[C@@H]1O` [Compound 93c, (2R,3R,4S,5S)-2-(4-Amino-7H-pyrrolo[2,3-d]pyrimidin-7-yl)-5-((((3-methyl-5-(4-nitrophenyl)isoxazol-4-yl)methyl)thio)methyl)tetrahydrofuran-3,4-diol] was tested. Which IC50 did it give?
A: 100 to 500 nM

Q: With `Cc1noc(-c2ccccc2)c1CSC[C@H]1O[C@@H](n2cc(-c3ccc([N+](=O)[O-])cc3)c3c(N)ncnc32)[C@H](O)[C@@H]1O` [Compound 144b] as the compound, how does the IC50 read?
A: 30 to 100 nM

Q: `Cc1noc(-c2ccc(N)cc2)c1CSC[C@H]1O[C@@H](n2ccc3c(N)ncnc32)[C@H](O)[C@@H]1O` [Compound 111, (2R,3R,4S,5S)-2-(4-Amino-7H-pyrrolo[2,3-d]pyrimidin-7-yl)-5-((((5-(4-aminophenyl)-3-methylisoxazol-4-yl)methyl)thio)methyl)tetrahydrofuran-3,4-diol] was tested. Which IC50 did it give?
A: 30 to 100 nM

Q: Which IC50 does the source give for `COc1ccc(-c2onc(C)c2CSC[C@H]2O[C@@H](n3ccc4c(N)ncnc43)[C@H](O)[C@@H]2O)cc1` [Compound 94c, (2R,3R,4S,5S)-2-(4-Amino-7H-pyrrolo[2,3-d]pyrimidin-7-yl)-5-((((5-(4-methoxyphenyl)-3-methylisoxazol-4-yl)methyl)thio)methyl)tetrahydrofuran-3,4-diol] here?
A: 10 to 30 nM

Q: How did the IC50 turn out when `Cc1noc(-c2ccccc2)c1CSC[C@H]1O[C@@H](n2cc(C#Cc3ccc(C(N)=O)cc3)c3c(N)ncnc32)[C@H](O)[C@@H]1O` [Compound 169b, 4-((4-Amino-7-((2R,3R,4S,5S)-3,4-dihydroxy-5-((((3-methyl-5-phenylisoxazol-4-yl)methyl)thio)methyl)tetrahydrofuran-2-yl)-7H-pyrrolo[2,3-d]pyrimidin-5-yl)ethynyl)benzamide] was run?
A: 30 to 100 nM

Q: Which IC50 does the source give for `Cc1noc(-c2ccccc2)c1CSC[C@H]1O[C@@H](n2cc(C3=CCC(C#N)CC3)c3c(N)ncnc32)[C@H](O)[C@@H]1O` (stereo partly drawn) [Compound 141b, 4-(4-Amino-7-((2R,3R,4S,5S)-3,4-dihydroxy-5-((((3-methyl-5-phenyhsoxazol-4-yl)methyl)thio)methyl)tetrahydrofuran-2-yl)-7H-pyrrolo[2,3-d]pyrimidin-5-yl)cyclohex-3-ene-1-carbonitrile] here?
A: 10 to 30 nM

Q: Which IC50 does the source give for `Cc1noc(-c2ccccc2)c1CSC[C@H]1O[C@@H](n2cc(Sc3ccccc3)c3c(N)ncnc32)[C@H](O)[C@@H]1O` [Compound 189b, (2R,3R,4S,5S)-2-(4-Amino-5-(phenylthio)-7H-pyrrolo[2,3-d]pyrimidin-7-yl)-5-((((3-methyl-5-phenylisoxazol-4-yl)methyl)thio)methyl)tetrahydrofuran-3,4-diol] here?
A: 30 to 100 nM

Q: Which IC50 does the source give for `Cc1csc(-c2ccccc2)c1CSC[C@H]1O[C@@H](n2ccc3c(N)ncnc32)[C@H](O)[C@@H]1O` [Compound 53c, (2R,3R,4S,5S)-2-(4-Amino-7H-pyrrolo[2,3-d]pyrimidin-7-yl)-5-((((4-methyl-2-phenylthiophen-3-yl)methyl)thio)methyl)tetrahydrofuran-3,4-diol] here?
A: 100 to 500 nM

Q: How did the IC50 turn out when `Cc1nc(N)c2ccn([C@@H]3O[C@H](CSCc4c(C)noc4-c4ccccc4)[C@@H](O)[C@H]3O)c2n1` [Compound 208, (2R,3R,4S,5S)-2-(4-Amino-2-methyl-7H-pyrrolo[2,3-d]pyrimidin-7-yl)-5-((((3-methyl-5-phenylisoxazol-4-yl)methyl)thio)methyl)tetrahydrofuran-3,4-diol] was run?
A: 30 to 100 nM

Q: Which IC50 does the source give for `Cc1noc(-c2ccccc2)c1CSC[C@H]1O[C@@H](n2cc(-c3ccc([N+](=O)[O-])nc3)c3c(N)ncnc32)[C@H](O)[C@@H]1O` [Compound 152, (2R,3R,4S,5S)-2-(4-Amino-5-(6-nitropyridin-3-yl)-7H-pyrrolo[2,3-d]pyrimidin-7-yl)-5-((((3-methyl-5-phenylisoxazol-4-yl)methyl)thio)methyl)tetrahydrofuran-3,4-diol] here?
A: 30 to 100 nM

Q: With `CCC(C)c1cn([C@@H]2O[C@H](CSCc3c(C)noc3-c3ccccc3)[C@@H](O)[C@H]2O)c2ncnc(N)c12` (stereo partly drawn) [Compound 130b, (2R,3R,4S,5S)-2-(4-Amino-5-(sec-butyl)-7H-pyrrolo[2,3-d]pyrimidin-7-yl)-5-((((3-methyl-5-phenylisoxazol-4-yl)methyl)thio)methyl)tetrahydrofuran-3,4-diol] as the compound, how does the IC50 read?
A: 100 to 500 nM

Q: Which IC50 does the source give for `Cc1noc(-c2ccccc2)c1CSC[C@H]1O[C@@H](n2cc(C#Cc3cnc4ccccc4n3)c3c(N)ncnc32)[C@H](O)[C@@H]1O` [Compound 177b, (2R,3R,4S,5S)-2-(4-Amino-5-(quinoxalin-2-ylethynyl)-7H-pyrrolo[2,3-d]pyrimidin-7-yl)-5-((((3-methyl-5-phenylisoxazol-4-yl)methyl)thio)methyl)tetrahydrofuran-3,4-diol] here?
A: 30 to 100 nM

Q: How did the IC50 turn out when `Cc1nsc(-c2ccccc2)c1CSC[C@H]1O[C@@H](n2cc(-c3ccc(C#N)cc3)c3c(N)ncnc32)[C@H](O)[C@@H]1O` [Compound 231b, 4-(4-Amino-7-((2R,3R,4S,5S)-3,4-dihydroxy-5-((((3-methyl-5-phenylisothiazol-4-yl)methyl)thio)methyl)tetrahydrofuran-2-yl)-7H-pyrrolo[2,3-d]pyrimidin-5-yl)benzonitrile] was run?
A: 100 to 500 nM

Q: Which IC50 does the source give for `Cc1noc(-c2ccccc2)c1CSC[C@H]1O[C@@H](n2cc(I)c3c(N)ncnc32)[C@H](O)[C@@H]1O` [Compound 123, (2R,3R,4S,5S)-2-(4-Amino-5-iodo-7H-pyrrolo[2,3-d]pyrimidin-7-yl)-5-((((3-methyl-5-phenylisoxazol-4-yl)methyl)thio)methyl)tetrahydrofuran-3,4-diol] here?
A: 30 to 100 nM

Q: `Cc1noc(-c2ccccc2)c1CSC[C@H]1O[C@@H](n2cc(/C=C/c3ccccc3)c3c(N)ncnc32)[C@H](O)[C@@H]1O` [Compound 181b, (2R,3R,4S,5S)-2-(4-Amino-5-((E)-styryl)-7H-pyrrolo[2,3-d]pyrimidin-7-yl)-5-((((3-methyl-5-phenylisoxazol-4-yl)methyl)thio)methyl)tetrahydrofuran-3,4-diol] was tested. Which IC50 did it give?
A: 100 to 500 nM

Q: Which IC50 does the source give for `Cc1noc(-c2ccccc2)c1CSC[C@H]1O[C@@H](n2cc(-c3ccc(N)cc3)c3c(N)ncnc32)[C@H](O)[C@@H]1O` [Compound 157] here?
A: 30 to 100 nM

Q: With `Cc1noc(-c2ccccc2)c1CSC[C@H]1O[C@@H](n2cc(Cc3ccccc3)c3c(N)ncnc32)[C@H](O)[C@@H]1O` [Compound 185b, (2R,3R,4S,5S)-2-(4-Amino-5-benzyl-7H-pyrrolo[2,3-d]pyrimidin-7-yl)-5-((((3-methyl-5-phenylisoxazol-4-yl)methyl)thio)methyl)tetrahydrofuran-3,4-diol] as the compound, how does the IC50 read?
A: 100 to 500 nM

Q: For `Cc1noc(-c2ccccc2)c1CSC[C@H]1O[C@@H](n2cc(SC34CC5CC(CC(C5)C3)C4)c3c(N)ncnc32)[C@H](O)[C@@H]1O` [Compound 191, (2R,3R,4S,5S)-2-(5-((Adamantan-1-yl)thio)-4-amino-7H-pyrrolo[2,3-d]pyrimidin-7-yl)-5-((((3-methyl-5-phenylisoxazol-4-yl)methyl)thio)methyl)tetrahydrofuran-3,4-diol], which IC50 is on record?
A: 100 to 500 nM

Q: Which IC50 does the source give for `Cc1noc(-c2ccccc2)c1CSC[C@H]1O[C@@H](n2cc(-c3ccc(C(F)(F)F)cc3)c3c(N)ncnc32)[C@H](O)[C@@H]1O` [Compound 145b] here?
A: 100 to 500 nM
